Experimental findings from ChEMBL document CHEMBL5325488, “Discovery of SMD-3040 as a Potent and Selective SMARCA2 PROTAC Degrader with Strong in vivo Antitumor Activity” (J Med Chem, 2023) are described below.

Data set [1] concerns the target T1, von Hippel-Lindau disease tumor suppressor/SWI/SNF-related matrix-associated actin-dependent regulator of chromatin subfamily A member 2 (Homo sapiens, UniProt P51531+P40337). Briefly: PROTAC activity at VHL/C-terminal HiBiT fused SMARCA2 in human HeLa cells assessed as induction of SMARCA2 degradation by measuring maximal efficacy at 0.0001 to 1 uM incubated for 24 hrs by Nano-Glo HiBiT analysis relative to control. It counts as cell-based. Conditions: dose 0.0001-1 µM. (HiBiT is a short tag that completes a luciferase, so light tracks the accessible tagged protein.)
Target sequence in this assay (P40337 whole entry, looked up, the tested form may be a part): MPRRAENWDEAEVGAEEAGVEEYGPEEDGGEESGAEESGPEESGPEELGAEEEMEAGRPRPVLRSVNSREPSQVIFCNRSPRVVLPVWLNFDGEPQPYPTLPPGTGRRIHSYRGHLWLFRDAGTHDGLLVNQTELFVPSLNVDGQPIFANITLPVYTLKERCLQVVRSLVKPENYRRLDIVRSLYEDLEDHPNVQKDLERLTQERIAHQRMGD
Target sequence in this assay (P51531 whole entry, looked up, the tested form may be a part): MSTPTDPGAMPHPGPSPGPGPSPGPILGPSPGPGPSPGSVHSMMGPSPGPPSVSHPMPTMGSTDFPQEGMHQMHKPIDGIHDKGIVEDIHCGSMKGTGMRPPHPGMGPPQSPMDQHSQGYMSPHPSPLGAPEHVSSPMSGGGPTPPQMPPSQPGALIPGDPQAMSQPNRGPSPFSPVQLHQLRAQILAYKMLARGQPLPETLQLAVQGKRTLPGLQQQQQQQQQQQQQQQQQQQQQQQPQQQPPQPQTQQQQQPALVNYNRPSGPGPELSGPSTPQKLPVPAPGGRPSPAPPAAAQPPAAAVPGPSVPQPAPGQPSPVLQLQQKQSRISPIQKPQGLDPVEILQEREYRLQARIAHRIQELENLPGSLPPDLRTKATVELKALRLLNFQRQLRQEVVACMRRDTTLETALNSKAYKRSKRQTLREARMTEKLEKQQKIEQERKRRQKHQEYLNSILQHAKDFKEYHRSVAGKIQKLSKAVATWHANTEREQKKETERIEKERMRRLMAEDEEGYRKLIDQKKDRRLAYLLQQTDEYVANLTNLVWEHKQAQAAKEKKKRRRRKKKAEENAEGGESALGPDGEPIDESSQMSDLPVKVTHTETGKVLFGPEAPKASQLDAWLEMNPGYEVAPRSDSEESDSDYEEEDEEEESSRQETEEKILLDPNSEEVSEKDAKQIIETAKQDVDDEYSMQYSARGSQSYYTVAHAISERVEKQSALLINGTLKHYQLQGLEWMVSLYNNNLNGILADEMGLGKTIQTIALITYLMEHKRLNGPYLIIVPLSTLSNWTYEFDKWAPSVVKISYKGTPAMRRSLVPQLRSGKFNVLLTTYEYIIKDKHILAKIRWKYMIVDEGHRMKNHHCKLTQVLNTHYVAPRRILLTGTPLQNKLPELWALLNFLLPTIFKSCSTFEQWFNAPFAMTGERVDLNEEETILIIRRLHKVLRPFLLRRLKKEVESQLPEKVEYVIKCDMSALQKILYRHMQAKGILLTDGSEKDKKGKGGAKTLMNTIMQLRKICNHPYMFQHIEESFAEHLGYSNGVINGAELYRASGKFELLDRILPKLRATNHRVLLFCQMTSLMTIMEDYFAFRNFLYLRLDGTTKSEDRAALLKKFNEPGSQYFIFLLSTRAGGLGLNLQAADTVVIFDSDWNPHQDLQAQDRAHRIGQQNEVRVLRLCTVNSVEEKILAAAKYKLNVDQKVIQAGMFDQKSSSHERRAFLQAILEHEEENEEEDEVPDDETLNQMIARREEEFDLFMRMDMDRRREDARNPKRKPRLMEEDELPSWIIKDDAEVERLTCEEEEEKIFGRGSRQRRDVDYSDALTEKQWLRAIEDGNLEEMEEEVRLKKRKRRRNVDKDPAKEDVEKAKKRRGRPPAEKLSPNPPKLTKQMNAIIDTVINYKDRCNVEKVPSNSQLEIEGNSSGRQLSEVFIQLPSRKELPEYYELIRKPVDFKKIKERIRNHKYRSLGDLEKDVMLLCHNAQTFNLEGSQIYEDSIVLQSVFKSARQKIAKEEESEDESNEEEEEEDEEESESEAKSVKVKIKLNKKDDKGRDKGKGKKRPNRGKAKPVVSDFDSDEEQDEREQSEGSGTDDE

Data set [2] deals with A549. Briefly: Antiproliferative activity against SMARCA4-deficient human A549 cells assessed as cell growth inhibition by measuring maximal efficacy measured after 7 days by WST-8 assay relative to control. The class given is functional. The following applies: time 7 day. For orientation: Tetrazolium dyes change colour on reduction, which living cells bring about.
For data set [3], the system named is NCI-H647. Put plainly: Antiproliferative activity against human NCI-H647 cells expressing wild-type SMARCA2 assessed as cell growth inhibition measured after 7 days by WST-8 assay. It counts as functional. Conditions: NCI-H647, 168 h, time 7 day.
The target in data set [4] is T2, von Hippel-Lindau disease tumor suppressor/SWI/SNF-related matrix-associated actin-dependent regulator of chromatin subfamily A member 4 (Homo sapiens, UniProt P51532+P40337). Put plainly: PROTAC activity at VHL/wild-type SMARCA4 in human SK-MEL-28 cells assessed as induction of SMARCA4 degradation incubated for 24 hrs by Western blotting analysis. It counts as cell-based.
T2 sequence (P51532 whole entry): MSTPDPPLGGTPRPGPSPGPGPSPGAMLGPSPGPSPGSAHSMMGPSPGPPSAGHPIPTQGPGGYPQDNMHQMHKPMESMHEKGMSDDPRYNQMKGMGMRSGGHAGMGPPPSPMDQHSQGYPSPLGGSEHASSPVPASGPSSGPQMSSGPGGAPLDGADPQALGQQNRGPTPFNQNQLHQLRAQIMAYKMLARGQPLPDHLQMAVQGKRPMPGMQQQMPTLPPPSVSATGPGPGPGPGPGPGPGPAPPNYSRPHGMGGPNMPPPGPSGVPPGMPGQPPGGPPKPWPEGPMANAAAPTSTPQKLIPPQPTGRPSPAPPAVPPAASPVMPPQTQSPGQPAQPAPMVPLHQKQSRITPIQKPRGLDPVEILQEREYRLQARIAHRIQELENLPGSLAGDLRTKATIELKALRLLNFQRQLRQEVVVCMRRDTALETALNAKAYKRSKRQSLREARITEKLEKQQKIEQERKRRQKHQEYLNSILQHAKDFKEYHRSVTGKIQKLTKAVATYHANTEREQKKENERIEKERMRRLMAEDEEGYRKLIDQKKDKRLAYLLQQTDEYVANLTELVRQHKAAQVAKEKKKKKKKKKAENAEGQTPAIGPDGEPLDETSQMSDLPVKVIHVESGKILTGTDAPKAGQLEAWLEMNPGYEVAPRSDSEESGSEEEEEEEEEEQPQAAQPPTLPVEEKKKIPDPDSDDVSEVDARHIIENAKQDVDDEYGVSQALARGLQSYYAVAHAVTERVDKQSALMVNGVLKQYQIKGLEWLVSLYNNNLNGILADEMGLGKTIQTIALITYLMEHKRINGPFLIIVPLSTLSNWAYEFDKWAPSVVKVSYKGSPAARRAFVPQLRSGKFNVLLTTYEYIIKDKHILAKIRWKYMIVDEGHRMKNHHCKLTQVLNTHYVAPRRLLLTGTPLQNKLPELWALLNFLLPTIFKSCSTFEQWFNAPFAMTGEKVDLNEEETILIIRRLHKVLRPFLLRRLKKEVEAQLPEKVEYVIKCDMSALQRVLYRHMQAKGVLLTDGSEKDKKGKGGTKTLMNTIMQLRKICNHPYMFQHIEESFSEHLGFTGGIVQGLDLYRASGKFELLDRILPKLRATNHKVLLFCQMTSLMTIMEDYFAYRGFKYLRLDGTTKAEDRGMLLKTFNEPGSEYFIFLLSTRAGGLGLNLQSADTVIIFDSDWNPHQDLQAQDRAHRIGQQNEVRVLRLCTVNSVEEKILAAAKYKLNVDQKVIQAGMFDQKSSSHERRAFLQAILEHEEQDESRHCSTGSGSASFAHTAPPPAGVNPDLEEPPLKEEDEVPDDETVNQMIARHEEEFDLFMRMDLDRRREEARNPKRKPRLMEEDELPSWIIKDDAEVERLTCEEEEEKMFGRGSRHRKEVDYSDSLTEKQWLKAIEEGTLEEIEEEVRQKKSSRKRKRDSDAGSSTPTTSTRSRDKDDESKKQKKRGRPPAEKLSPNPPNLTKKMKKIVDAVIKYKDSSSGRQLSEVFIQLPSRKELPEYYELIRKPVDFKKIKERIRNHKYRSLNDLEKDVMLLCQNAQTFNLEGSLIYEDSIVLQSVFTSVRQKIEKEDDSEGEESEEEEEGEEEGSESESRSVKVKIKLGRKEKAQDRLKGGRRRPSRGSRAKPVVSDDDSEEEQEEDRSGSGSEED
T2 sequence (P40337 whole entry): as the sequence (P40337 whole entry, looked up, the tested form may be a part) above

Data set [5] concerns the target T1, von Hippel-Lindau disease tumor suppressor/SWI/SNF-related matrix-associated actin-dependent regulator of chromatin subfamily A member 2. Put plainly: PROTAC activity at VHL/C-terminal HiBiT fused SMARCA2 in human HeLa cells assessed as induction of SMARCA2 degradation at 0.0001 to 1 uM incubated for 3 hrs by Nano-Glo HiBiT analysis relative to control. The class given is cell-based. Conditions: dose 0.0001-1 µM.
Target sequence in this assay (P40337 whole entry, looked up, the tested form may be a part): as above
Target sequence in this assay (P51531 whole entry, looked up, the tested form may be a part): as the sequence (P51531 whole entry, looked up, the tested form may be a part) above

The target is the same in data set [6]. Put plainly: In vivo PROTAC activity at VHL/SMARCA2 in SCID mouse xenografted with human MV4-11 cells assessed as remaining activity in tumor at 50 mg/kg, iv administered as single dose measured after 24 hrs by Western blotting analysis (reference value: 100 +/- 15 % ). The class given is ADME, organism-based. In general terms: A xenograft is tissue or cells of one species grown in another, often human tumour cells in immunodeficient mice.
Target sequence in this assay (P51531 whole entry, the tested form may be a part): as the sequence (P51531 whole entry, looked up, the tested form may be a part) above
Target sequence in this assay (P40337 whole entry, the tested form may be a part): as the sequence (P40337 whole entry, looked up, the tested form may be a part) above

Data set [7] addresses T2, von Hippel-Lindau disease tumor suppressor/SWI/SNF-related matrix-associated actin-dependent regulator of chromatin subfamily A member 4. Briefly: In vivo PROTAC activity at VHL/SMARCA4 in SCID mouse xenografted with human MV4-11 cells assessed as reduction of SMARCA4 level in tumor at 50 mg/kg, iv administered as single dose measured after 96 hrs by Western blotting analysis. The class given is ADME, organism-based. Set-up: scale not given: the % may be the effect or the level left.

With `Cc1ncsc1-c1ccc([C@H](C)NC(=O)[C@@H]2C[C@@H](O)CN2C(=O)[C@@H](NC(=O)[C@H]2CC[C@H](CN3CC4(CCC(n5cc(-c6cc(-c7ccccc7O)nnc6N)cn5)CC4)C3)CC2)C(C)(C)C)cc1`, the Emax came out at 90% in data set [1] and 79% in data set [5]. In addition, the Imax in data set [2] is reported as 51%. The GI50 in data set [3] was found to be 3.1 µM. In addition, the DC50 in data set [4] was greater than 1 µM. Besides, the values for the Activity in data set [6] and in data set [7] were 14% and 16%, respectively.

Usually Emax stands for the maximal effect, on the per cent scale that the assay sets. A word on the GI50: it is the concentration that inhibits growth by half. By DC50 is commonly meant the concentration giving 50% degradation.
